ChEMBL document CHEMBL5154681, “Small Amphiphilic Peptides: Activity Against a Broad Range of Drug-Resistant Bacteria and Structural Insight into Membranolytic Properties” (J Med Chem, 2022)
In brackets after ≈: the same amount, converted by molar mass. Activity calls are given as the source filed them. The rule behind the calls is not given here. Square brackets hold non-standard residues; d marks the D form. Peptide text beside a SMILES is read from it. Dip = N[C@H](C(=O)O)C(c1ccccc1)c1ccccc1; 2Nal = N[C@@H](Cc1ccc2ccccc2c1)C(=O)O

How the values were obtained:
[1] = system: Erythrocyte; test: (§1) Hemolytic activity in human RBC assessed as hemolysis incubated for 2 hrs by spectrophotometer analysis; assay type: toxicity, cell-based; conditions: erythrocyte, 2 h
[2] = system: Staphylococcus aureus; test: Antibacterial activity against methicillin resistant Staphylococcus aureus ATCC BAA-1556 incubated for 24 hrs by microtiter plate method; assay type: functional
[3] = system: Pseudomonas aeruginosa; test: Antibacterial activity against Pseudomonas aeruginosa ATCC 27883 incubated for 24 hrs by microtiter plate method; assay type: functional
[4] = as §1; assay type: toxicity, cell-based, Erythrocyte; conditions: human red blood cells (erythrocytes)
[5] = system: Staphylococcus aureus; test: Antibacterial activity against Staphylococcus aureus ATCC 29213 incubated for 24 hrs by microtiter plate method; assay type: functional; conditions: Staphylococcus aureus, ATCC 29213, read-out: MIC
[6] = Cytotoxicity against HEK293 assessed as cell viability at 250 ug/ml incubated for 24 hrs by microplate spectrophotometer analysis method relative to control; assay type: toxicity, cell-based; conditions: human, HEK293 cells, at 250 µg/mL, read-out: Activity
[7] = system: MRC5; test: Cytotoxicity against human MRC-5 assessed as cell viability at 250 ug/ml incubated for 24 hrs by microplate spectrophotometer analysis method; assay type: toxicity, cell-based; conditions: mrc5, 24 h, dose 250 µg/ml
[8] = system: HepaRG; test: Cytotoxicity against human HPRGC10 assessed as cell viability at 250 ug/ml incubated for 24 hrs by microplate spectrophotometer analysis method relative to control; assay type: functional; conditions: read-out: Activity
[9] = system: Lipid bilayer; test: Membrano-lytic effect in bacterial inner membrane mimic DOPC/DOPG (7:3) large unilamellar vesicles assessed as calcein leakage measured upto 100 mins for every 10 mins by multimode microplate reader assay; assay type: cell membranes; conditions: dose 5-50 µg/ml, DDE = dose-dependent effect
[10] = system: Escherichia coli; test: Bactericidal activity against Escherichia coli ATCC BAA-2452 assessed as time required for complete reduction of bacterial growth at MIC by counting formed colonies; assay type: functional
[11] = system: Escherichia coli; test: Bactericidal activity against Escherichia coli ATCC BAA-2452 assessed as time required for complete reduction of bacterial growth at 4 times MIC by counting formed colonies; assay type: functional
[12] = system: Staphylococcus aureus; test: Bactericidal activity against methicillin resistant Staphylococcus aureus ATCC BAA-1556 assessed as time required for complete reduction of bacterial growth at MIC by counting formed colonies; assay type: functional
[13] = system: Staphylococcus aureus; test: Bactericidal activity against methicillin resistant Staphylococcus aureus ATCC BAA-1556 assessed as time required for complete reduction of bacterial growth at 4 times MIC by counting formed colonies; assay type: functional
[14] = system: Lipid bilayer; test: Membrano-lytic effect in mammalian membrane mimic DOPC/cholesterol (10:1) large unilamellar vesicles assessed as calcein leakage measured at 50 microg/ml measured upto 100 mins for every 10 mins by multimode microplate reader assay; assay type: cell membranes; conditions: dose 50.0 µg/ml
[15] = system: Cell membrane; test: Membrano-lytic effect in cytoplasmic membrane of methicillin resistant Staphylococcus aureus ATCC BAA-1556 assessed as disruption by measuring propidium iodide fluorescence at MIC incubated for 1 hr by FACscan flow cytometer analysis
[16] = Proteolytic stability in human plasma at 100 uM incubated for 30 mins by Q-TOF LC/MS analysis relative to control; assay type: ADME, cell-free; conditions: read-out: Stability
[17] = Proteolytic stability in human plasma at 100 uM incubated for 24 hrs by Q-TOF LC/MS analysis relative to control; assay type: ADME, cell-free; conditions: read-out: Stability
[18] = system: Lipid bilayer; test: Induction of membrane disruption in bacterial inner membrane mimic DOPC/DOPG (7:3) large unilamellar vesicles assessed as decrease in particle size of liposome at 1:1 compound to lipid ratio measured after 24 hrs by dynamic light scattering analysis; assay type: cell membranes
[19] = system: Cell membrane; test: Membrano-lytic effect in cytoplasmic membrane of methicillin resistant Staphylococcus aureus ATCC BAA-1556 assessed as disruption by measuring propidium iodide fluorescence incubated for 1 hr by FACscan flow cytometer analysis; conditions: DDE = dose-dependent effect
[20] = system: Cell membrane; test: Membrano-lytic effect in cytoplasmic membrane of Escherichia coli ATCC BAA-2452 assessed as disruption by measuring propidium iodide fluorescence incubated for 1 hr by FACscan flow cytometer analysis; conditions: DDE = dose-dependent effect
[21] = system: Escherichia coli; test: Antibacterial activity against Escherichia coli ATCC 25922 incubated for 24 hrs by microtiter plate method; assay type: functional; conditions: Escherichia coli, ATCC 25922, 24 h, read-out: MIC
[22] = system: HEK293; test: Cytotoxicity against HEK293 assessed as cell viability measured after 24 hrs by microplate spectrophotometer analysis; assay type: toxicity, cell-based; conditions: human, hek293, 24 h, DDE = dose-dependent effect, dose < 250 µg/ml
[23] = system: MRC5; test: Cytotoxicity against human MRC-5 assessed as cell viability measured after 24 hrs by microplate spectrophotometer analysis; assay type: toxicity, cell-based; conditions: mrc5, 24 h, DDE = dose-dependent effect, dose < 250 µg/ml
[24] = system: HepaRG; test: Cytotoxicity against human HPRGC10 assessed as cell viability measured after 24 hrs by microplate spectrophotometer analysis; assay type: functional, cell-based; conditions: dose <= 250.0 µg/ml, DDE = dose-dependent effect
[25] = Staphylococcus aureus, ATCC BAA-1556, 24 h, read-out: MIC
[26] = Pseudomonas aeruginosa, ATCC 27883, 24 h, read-out: MIC

| Structure (SMILES) | HC50 at 2 h [4] [µg/mL] | MIC [2, 25] [µg/mL] | MIC [5] [µg/mL] | MIC [3, 26] [µg/mL] | Activity [9] | Time [10] [h] | Time [11] [h] | Time [12] [h] | Time [13] [h] | Activity [14] [%] | Activity [15] [%] | remaining at 0.5 h, 100 µM [16] [%] | remaining at 24 h, 100 µM [17] [%] | Activity [18] | Activity [19] | Activity [20] | further results |
| --- | --- | --- | --- | --- | --- | --- | --- | --- | --- | --- | --- | --- | --- | --- | --- | --- | --- |
| N=C(N)NCCC[C@@H]1NC(=O)[C@H](CCCNC(=N)N)NC(=O)[C@H](C(c2ccccc2)c2ccccc2)NC(=O)[C@H](C(c2ccccc2)c2ccccc2)NC(=O)[C@H](CCCNC(=N)N)NC(=O)[C@H](CCCNC(=N)N)NC(=O)[C@H](C(c2ccccc2)c2ccccc2)NC1=O (stereo in doubt; 17C) | – | – | – | – | – | – | – | – | – | – | – | – | – | – | – | – | HC50 [1]: 145 µg/mL; MIC ([2]; 24 h): 12.5 µg/mL (≈ 9.66 µM); MIC ([3]; 24 h): >100 µg/mL |
| N=C(N)NCCC[C@H](NC(=O)[C@H](CCCNC(=N)N)NC(=O)[C@H](CCCNC(=N)N)NC(=O)[C@@H](N)CCCNC(=N)N)C(=O)N[C@@H](Cc1ccc2ccccc2c1)C(=O)N[C@@H](Cc1ccc2ccccc2c1)C(=O)N[C@@H](Cc1ccc2ccccc2c1)C(=O)O (H-RRRR[2Nal][2Nal][2Nal]-OH) | 130 | 6.2 (≈ 5.02 µM) | 6.2 (≈ 5.02 µM) | 25 (≈ 20.3 µM) | Dde | 4 | 2.5 | 3 | 2 | 6 | 35 | 62 | 32 | Active | Dde | Dde | viability at 24 h, 250 ug/ml [6]: 69%; Activity [7]: Non-Toxic; viability at 250 µg/mL [8]: 47% |
| N=C(N)NCCC[C@H](NC(=O)[C@H](CCCNC(=N)N)NC(=O)[C@@H](N)CCCNC(=N)N)C(=O)N[C@@H](CCCNC(=N)N)C(=O)N[C@H](C(=O)N[C@H](C(=O)N[C@H](C(=O)O)C(c1ccccc1)c1ccccc1)C(c1ccccc1)c1ccccc1)C(c1ccccc1)c1ccccc1 (H-RRRR[Dip][Dip][Dip]-OH) | 145 | 6.2 (≈ 4.72 µM) | 6.2 (≈ 4.72 µM) | 12.5 (≈ 9.52 µM) | Dde | 4 | 2.5 | 3 | 2 | 8 | 35 | 69 | 21 | Active | Dde | Dde | MIC [21]: 12.5 µg/mL (≈ 9.52 µM); Activity [22]: Dde; Activity [23]: Dde; Activity [24]: Dde |
